Structures can show the parent of a compound that is named as a salt.
Assays:
[1] = tested on: NIH mice; assay: Antitussive test of Naringin, spraying with concentrated ammonia liquor (Example 28); format: in vivo; conditions: 0.2 ml/20g of 1.5 mg/ml
Source text: 1.Animals: As the stock animals, totally 130 NIH mice, male, each weighed 18.2~21.7g within ordinary standard. Weigh and number each mice accurately first, then pick out the 120 healthy ones who weighed in range from 18.5~21.0g. Ranked in weigh, they were divided into 8 groups in random with each 15. Set up reference groups of negative and positive, and sample groups of high-dose, mid-dose, low-dose Naringin and sodium Naringinate.
• 1) Blank control group: physiological saline, 0.9% NaCl; • 2) Positive control group: 30 mg dextromethorphan hydrobromide was weighed into a 20ml volumetric flask, and physiological saline was accurately added to the volume to obtain the solution for positive control at concentration of 5mg/ml° • 3) Group of low-dose sample Naringin: Proper amount of Naringin was weighed into a suitable volumetric flask, and physiological saline was added to the volume to obtain the solution at concentration of 0.5mg/ml. • 4) Group of mid-dose sample Naringin: Proper amount of Naringin was weighed into a suitable volumetric flask, and physiological saline was added to the volume to obtain the solution at concentration of 1.5mg/ml. • 5) Group of high-dose sample Naringin: Proper amount of Naringin was weighed into a suitable volumetric flask, and physiological saline was added to the volume to obtain the solution at concentration of 4.5mg/ml. • 6) Group of low-dose sample sodium Naringinate: Proper amount of sodium Naringin was weighed into a suitable volumetric flask, and physiological saline was added to the volume to obtain the solution at concentration of 0.5mg/ml. • 7) Group of mid-dose sample sodium Naringinate: Proper amount of sodium Naringin was weighed into a suitable volumetric flask, and physiological saline was added to the volume to obtain the solution at concentration of 1.5mg/ml. • 8) Group of high-dose sample sodium Naringinate: Proper amount of sodium Naringin was weighed into a suitable volumetric flask, and physiological saline was added to the volume to obtain the solution at concentration of4.5mg/ml.
One hour after intra-gastrointestinal administering for the mice, spray with concentrated ammonia liquor for certain intervals. Immediately the spraying was over, put away the mice outside and observe the tussive action. Mark down the times for which they coughed within 1 minute. Only when they coughed, which was characteristic of compression of abdomen or chest with their mouths open, and making coughing noise, for more than 3 times within a minute, tussive action could be admitted.
Calculate the median effective dose(EDT50) with sequential trials. Work out the amount of R with the formula below. If R is greater than 130%, it means the drug will be effective on antitussive action. If R is greater than 150%, it means the drug will be remarkably effective on antitussive action. The formula is shown as below: R =(EDT50 of the treatmnet)/(EDT50 of the control)× 100% [formula] EDT50=log-1c/n(n for amount of animals, c for summation of rx, r for amount of animals in each group, x for logarithm of the dose (time for spraying) )

[2] = tested on: mice; assay: Antitussive test of Naringenin, spray by high concentration ammonia (Example 30); format: in vivo; conditions: sample concentration 1.5 mg/ml
Source text: 1. Animal: 120 healthy male mice weighing 19.5-22.1g was grouped into 8 groups random after labeled, which was selected from 130 male mice weighing 19.3-22.6g. Every group was 15 mice. Eight group were set including negative control group, positive control group, high dose group of Naringenin, middle dose group of Naringenin, low dose group of Naringenin, high dose group of sodium salt of Naringenin, middle dose group of sodium salt of Naringenin, low dose group of sodium salt of Naringenin.
• 1) Blank control group: physiological saline, 0.9% NaCl; • 2) Positive control group: 30mg Dextromethorphan Hydrobromide was dissolve into 20 ml physiological saline and the sample concentration was 1.5 mg/ml to obtain the solution for positive control. • 3) low dose group of Naringenin: weighting out the appropriate amount of Naringenin and dissolving it in physiological saline, then the sample concentration was 0.5 mg/ml. • 4) middle dose group of Naringenin: weighting out the appropriate amount of Naringenin and dissolving it in physiological saline, then the sample concentration was 1.5mg/ml. • 5) high dose group of Naringenin: weighting out the appropriate amount of Naringenin and dissolving it in physiological saline, then the sample concentration was 4.5 mg/ml. • 6) low dose group of sodium salt of Naringenin: weighting out the appropriate amount of sodium salt of Naringenin and dissolving it in physiological saline, then the sample concentration was 0.5 mg/ml. • 7) middle dose group of sodium salt of Naringenin: weighting out the appropriate amount of sodium salt of Naringenin and dissolving it in physiological saline, then the sample concentration was 1.5 mg/ml. • 8) high dose group of sodium salt of Naringenin: weighting out the appropriate amount of sodium salt of Naringenin and dissolving it in physiological saline, then the sample concentration was 4.5 mg/ml.
Animals were oral administered, and were sprayed one hour later. After the spray took out the animals and observed the tussive action. Observed the time of tussis in one minutes, if it appeared typical tussis three times in one minutes(shrinking the abdomen muscle or shrinking chest, puffing mouth at the same time, sometimes appearing tussive sound), we consider it "appearing tussis", otherwise "no tussis".
We calculated the spraying time that half of mice were tusisive by sequential method. And calculated the R, the drug was provided with effect of relieve a cough if R>130%. The drug was provided with remarkable effect of relieve a cough if R>150%. Underside is expressions: R=(EDT50 of the treatment)/(EDT50 of the control)× 100% [formula] EDT50=log^-1c/n ('n' is the number of animal, 'c' is the sum of 'rx' value, 'r' is the number of animal in every group, 'x' is the logarithm of dose(namely spray time).)

[3] = EDT50 of the treatment / EDT50 of the control x 100%

COc1ccc2c(c1)[C@]13CCCC[C@@H]1[C@H](C2)N(C)CC3 [Dextromethorphan Hydrobromide, reference compound]
Effect of relieving cough [1]: effective (If R is greater than 130%, it means the drug will be effective on antitussive action) | R Value [1, 3]: 140.23% | EDT50 ([1]; mice, intra-gastrointestinal, ammonia spray 1 hour after dosing): 56.82 s | R Value [2, 3]: 138.05% | EDT50 ([2]; mice, oral, dose 0.2 (mg/20g), spray one hour later): 53.70 s | Effect of relieving cough [2]: effect (the drug was provided with effect of relieve a cough if R>130%)
